Experimental data reported in US20130096077A1, “Nematicidal Mixtures for Use in Sugar Cane” (priority 2010, published 2013).

Key:
Assay type in all cases: in vivo
[1] = test system: Helicotylenchus species; test: Nematicidal activity, sugar cane field, in furrow tank mix application; settings: fipronil 200, abamectin 90, mixture 200 + 90 g a.i./ha; for Nematode activity in the soil 90 days after planting: 1000 ml soil incl. roots, in furrow at planting, blank 317; for Efficacy/mortality: 90 days after planting, in furrow
Procedure: (§1) Fipronil was used in the commercially available formulation Regent® 800 WG, containing Fipronil in a concentration of 800 g/kg. Abamectin was used in the commercially available EC formulation Vertimec® 18 CE, containing Abamectin in a concentration of 18 g/I.
(§2) Tank mixes of the commercial formulations of fipronil and abamectin diluted with water were prepared in a ratio such that the application rates identified in the tables below were achieved when 100 liter of tank mix formulation were applied to sugar cane in furrow.
(§3) The tank mix formulation was applied in furrow spraying over the sugar cane stems (cuttings/segments, 1 to 3 nodes segments) at the planting time.
(§4) The synergistic effect was determined by Limpel's formula. Synergism was evident if the observed effect for the mixture is greater than the expected calculated effect:
(§5) E=Expected activity of the mixture X=activity of compound X Y=activity of compound Y
(§6) Treatments were done mid of June 2009 in Brazil in sugar cane fields which had not been pretreated with nematicides, that is, in fields showing an average nematode population.
(§7) Treatments were done only at the time of planting, that is, no further in furrow treatment was conducted. Each treatment experiment was replicated 6 times.
(§8) Nematicidal activity for Helicotylenchus and Paratrichodorus species was evaluated before the spraying for different portions of 1000 ml of soils collected at different sites of the field (“blank” in Table 1).
(§9) 90 days after spraying the tank mix formulation, different portions of 1000 ml of soil (including roots) were collected at different sites of the field, and the soil and the root knots were evaluated for nematicidal activity of Helicotylenchus and Paratrichodorus species and efficacy/mortality, respectively.
(§10) Synergism was evident if the % observed mortality for the mixture was greater than the % expected mortality.

[2] = test system: Paratrichodorus species; test: as above; settings: fipronil 200, abamectin 90, mixture 200 + 90 g a.i./ha; for Nematode activity in the soil 90 days after planting: 1000 ml soil incl. roots, in furrow at planting, blank 133; for Efficacy/mortality: 90 days after planting, in furrow
Procedure: as §1, §2, §3, §4, §5, §6, §7, §8, §9, §10

[3] = test system: sugar cane; test: Plant health activity: tillering of sugar cane; settings: fipronil 200, abamectin 90, mixture 200 + 90 g a.i./ha; for No. of tillers 180 days after planting: average per 1.0 linear meter, in furrow at planting, blank 19.75; for % of increase: tillers 180 days after planting vs blank
Procedure: as §1, §2, §3, §4, §5
The tank mix formulation of the mixture of fipronil and abamectin was prepared as described above for testing of nematicidal activity. The tank mix formulation was applied to sugar cane as described above for testing of nematicidal activity.
Tillering was evaluated before the application of the tank mix (“blank” in Table 2) and 180 days after planting/application the tank mix formulation. Each replication (plot) was evaluated at 3 different randomized points, each point consisting of 1.0 linear meter of the central rows of the plot. Evaluation was done for 4 replications (plots).

[4] = test system: sugar cane (variety SP80-1842); test: Yield increase of sugar cane; settings: fipronil 200, abamectin 126, mixture 200 + 126 g a.i./ha; for Yield: in furrow at planting, untreated 102.81; for % increase of yield: vs untreated

Compound	Nematode activity in the soil 90 days after planting [1]	Efficacy/mortality [1]	Nematode activity in the soil 90 days after planting [2]	Efficacy/mortality [2]	No. of tillers 180 days after planting [3]	% of increase [3]	Yield [4]	% increase of yield [4]
N#Cc1nn(-c2c(Cl)cc(C(F)(F)F)cc2Cl)c(N)c1[S+]([O-])C(F)(F)F (stereo not shown) [Fipronil]	367	0%	100	25%	20.25	2.5%	106.31 tons/ha	3.4%
Abamectin	117	63%	133	0%	21.5	8.9%	106.33 tons/ha	3.4%
